Assay results as given in paper PMC7515829, “HKDC1 C-terminal based peptides inhibit extranodal natural killer/T-cell lymphoma by modulation of mitochondrial function and EBV suppression” (Leukemia, 2020).

Tests used:
HKDC1/VDAC1 [1] = biological target: T1, HKDC1/VDAC1 (Homo sapiens, UniProt P21796); test: IP/WB HKDC1 binding with VDAC1 in xenograft tumor tissue; assay type: in vivo, mouse; parameters: from tissue; host or cells: SNK6 xenograft tumor tissue from Balb/c athymic nude mice; settings: SNK6 xenograft, nude mice; intratumoral 50 µM peptide every 2 days from day ~18; tissue day 50; IP/WB vs CTL; n = 5
T1 sequence (P21796 2-283 limits assumed): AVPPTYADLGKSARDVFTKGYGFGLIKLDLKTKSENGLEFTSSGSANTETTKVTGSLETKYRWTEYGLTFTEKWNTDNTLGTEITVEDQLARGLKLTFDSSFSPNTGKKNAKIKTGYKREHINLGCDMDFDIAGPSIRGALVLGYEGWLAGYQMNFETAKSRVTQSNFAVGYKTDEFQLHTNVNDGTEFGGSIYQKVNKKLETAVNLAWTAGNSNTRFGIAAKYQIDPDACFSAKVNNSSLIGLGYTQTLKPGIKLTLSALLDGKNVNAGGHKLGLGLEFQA
Procedure: (§1) Immunoprecipitation (IP) and Western Blotting (WB). Cell lysates were pre-cleared by pre-immune IgG plus Protein A agarose beads for 2 hours, and the supernatants were immunoprecipitated by the indicated antibodies and a 50% slurry of Protein A Agarose beads overnight at 4 °C (9). After washing with buffer containing 50 mM Tris, pH 7.5, 150 mM NaCl, 1% NP-40, and 0.5% deoxycholate with protease inhibitors, proteins were released, separated on 10% SDS-PAGE gels, blotted by primary antibodies, and then simultaneously incubated with the differentially labeled species-specific secondary antibodies, anti-RABBIT IRDye™ 800CW (green) and anti-MOUSE (or goat) ALEXA680 (red). Membranes were scanned and quantitated by the ODYSSEY Infrared Imaging System (LI-COR, NE) (10).
(§2) Biomedical analysis of tumor tissues.

HKDC1/VDAC1 [2] = biological target: T1, HKDC1/VDAC1; test: IP/WB association of HKDC1 with VDAC1 in SNK6 cells; assay type: cell-based; parameters: endogenous in cells; host or cells: SNK6; settings: 0.5 µM peptide, 6 h, vs CTL, n = 5 (Fig. 4c, d)
Procedure: as §1

EBV Zta = test: Protein level in xenograft tumor tissue (western blot); assay type: in vivo; settings: SNK6 xenograft, Balb/c athymic nude mice; intratumoral 50 µM peptide, 20 µl per tumor, every 2 days from day ~18; tissue day 50; western blot vs CTL; n = 5
Source text: as §2

SNK6 cells [3] = test: Intracellular ATP level (luciferin/luciferase); assay type: cell-based, human; settings: 0.5 µM peptide, 6 h, vs CTL, n = 5 (Fig. 4g)
Procedure: Measurement of mitochondrial function. Intracellular ATP level was determined using the luciferin/luciferase-induced bioluminescence system. An ATP standard curve was generated at concentrations of 10^-12-10^-3M, and intracellular ATP levels were calculated and expressed as nmol/mg protein. Mitochondrial membrane potential (Δψm) was measured using TMRE (from Molecular Probes T-669) staining. A 600μM T-669 stock solution was prepared using DMSO. Cells were grown on coverslips and immersed in 600nM TMRE for 20 min at 37°C to load them with dye. The labeling medium was then aspirated and the cells were immersed in 150nM TMRE to maintain an equal distribution of the fluorophore. The coverslips were mounted with live cells onto confocal microscopes to image the cells using 548nm excitation/573nm emission filters, and the intensity of TMRE fluorescence was measured using Image J software. Data from 10-20 cells were collected for each experimental condition and mean values of fluorescence intensity ± SEM were calculated (12).

EBV = EBV viral genomes/cell by qPCR in tumor tissue; assay type: in vivo, mouse; settings: SNK6 xenograft, nude mice; intratumoral 50 µM peptide every 2 days from day ~18; tissue day 50; qPCR vs CTL; n = 4
Procedure: Detection of EBV copy number. Genomic DNA was extracted from treated SNK-6 cells or SNK-6 tumor tissue in mice using a QIAamp DNA Mini Kit (Qiagen). The EBV DNA copy number was measured through qPCR using 50ng of total DNA with EBV BMRF1 primers (see Table 1), and the results were normalized using cellular β-actin (primers see Table 1) as an internal control (13, 14). The Namalwa cell line, which contains 2 EBV viral genome copies, was used as a standard to prepare calibration curves for both EBV BMRF1 and β-actin genes, and the EBV viral load was presented as the number of viral genomes per cell (15, 16).

Healthy MNCs = test: Cell death IC50 by PI staining/FACS; assay type: cell-based; settings: Healthy human mononuclear cells/EBV(−), 0.1–15 µM, 6 h (suspension) or 12 h (adherent cells), mean ± SEM, read-out: Peptide IC50 (µM), cell death, Healthy MNCs
Procedure: (§3) Measurement of apoptosis and cell death. Apoptosis was evaluated by TUNEL assay using the In Situ Cell Death Detection Kit™ (Roche). Cells were fixed in 4% paraformaldehyde and labeled with TUNEL reagents. Stained cells were photographed by a fluorescence microscope (11). For cell death analysis, the propidium iodide (PI) staining was performed by addition of 6.25 µg/ml of PI to the cells, and cell death was immediately evaluated by FACS analysis (3).

HL-60 = test: Cell death IC50 by PI staining/FACS; assay type: cell-based; settings: Human acute promyelocytic leukemia/EBV(−), 0.1–15 µM, 6 h (suspension) or 12 h (adherent cells), mean ± SEM, read-out: Peptide IC50 (µM), cell death, HL-60
Procedure: as §3

HANK1 = test: Cell death IC50 by PI staining/FACS; assay type: cell-based; settings: Human natural killer/T-cell lymphoma/EBV(+), 0.1–15 µM, 6 h (suspension) or 12 h (adherent cells), mean ± SEM, read-out: Peptide IC50 (µM), cell death, HANK1
Procedure: as §3

U266B1 = test: Cell death IC50 by PI staining/FACS; assay type: cell-based; settings: Human B lymphoblast/EBV(−), 0.1–15 µM, 6 h (suspension) or 12 h (adherent cells), mean ± SEM, read-out: Peptide IC50 (µM), cell death, U266B1
Procedure: as §3

HepG2 = test: Cell death IC50 by PI staining/FACS; assay type: cell-based; settings: Human hepatocellular carcinoma/EBV(−), 0.1–15 µM, 6 h (suspension) or 12 h (adherent cells), mean ± SEM, read-out: Peptide IC50 (µM), cell death, HepG2
Procedure: as §3

SNT8 = test: Cell death IC50 by PI staining/FACS; assay type: cell-based; settings: Human natural killer/T-cell lymphoma/EBV(+), 0.1–15 µM, 6 h (suspension) or 12 h (adherent cells), mean ± SEM, read-out: Peptide IC50 (µM), cell death, SNT8
Procedure: as §3

SW480 = test: Cell death IC50 by PI staining/FACS; assay type: cell-based; settings: Human colorectal adenocarcinoma/EBV(−), 0.1–15 µM, 6 h (suspension) or 12 h (adherent cells), mean ± SEM, read-out: Peptide IC50 (µM), cell death, SW480
Procedure: as §3

SNK6 xenograft = test: Tumor growth by H&E staining (tumor spots); assay type: in vivo, mouse; settings: nude mice, intratumoral 50 µM peptide every 2 days from day ~18, tissue day 50, vs CTL, n = 5
Source text: as §2

SNK6 cells [4] = test: γH2AX formation (western blot); assay type: cell-based, human; settings: 0.5 µM peptide, 6 h, vs CTL, n = 5 (Fig. 3d)
Procedure: Measurement of DNA breaks. 8-OHdG formation was measured using an OxiSelect™ Oxidative DNA Damage ELISA Kit (Cat No. STA320, from Cell Biolabs Inc.) per manufacturers’ instructions. The formation of γH2AX was measured from nuclear extracts by western blotting using H2AX as the input control (8).

| Substance | HKDC1 binding with VDAC1 in tumor (HKDC1/VDAC1 [1]) | association of HKDC1 with VDAC1 (HKDC1/VDAC1 [2]) | EBV Zta protein levels in tumor (EBV Zta) | intracellular ATP generation (SNK6 cells [3]) | EBV genome replication in tumor (EBV) | IC50 (Healthy MNCs) | IC50 (HL-60) | IC50 (HANK1) | IC50 (U266B1) | IC50 (HepG2) | IC50 (SNT8) | IC50 (SW480) | tumor growth using H&E staining (tumor spots) (SNK6 xenograft) | γH2AX formation (SNK6 cells [4]) |
| --- | --- | --- | --- | --- | --- | --- | --- | --- | --- | --- | --- | --- | --- | --- |
| HAIYPRH-LQQAQKEN [Tf-D-HKC8] | 38% | 24% | 32% | 30% | 25% | > 15 µM | 1.7 ± 0.4 µM | 0.7 ± 0.4 µM | 1.4 ± 0.3 µM | > 15 µM | 0.6 ± 0.3 µM | 6.7 ± 0.8 µM | 23% | 189% |
| HAIYPRH-ITAVAKRLQQAQKEN [Tf-D-HKC15] | 71% | 68% | 65% | 61% | 59% | > 15 µM | 2.2 ± 0.6 µM | 1.4 ± 0.6 µM | 2.2 ± 0.6 µM | > 15 µM | 1.1 ± 0.4 µM | 8.9 ± 0.9 µM | 56% | 144% |
